In the test the target is T1, dihydropyrimidine dehydrogenase (DPD) (Homo sapiens, UniProt Q12882).
T1 construct: from tissue; host or cells: donor whole blood (K2EDTA), plasma separated from it, and WBC/buffy coat
T1 sequence (Q12882 4-1025): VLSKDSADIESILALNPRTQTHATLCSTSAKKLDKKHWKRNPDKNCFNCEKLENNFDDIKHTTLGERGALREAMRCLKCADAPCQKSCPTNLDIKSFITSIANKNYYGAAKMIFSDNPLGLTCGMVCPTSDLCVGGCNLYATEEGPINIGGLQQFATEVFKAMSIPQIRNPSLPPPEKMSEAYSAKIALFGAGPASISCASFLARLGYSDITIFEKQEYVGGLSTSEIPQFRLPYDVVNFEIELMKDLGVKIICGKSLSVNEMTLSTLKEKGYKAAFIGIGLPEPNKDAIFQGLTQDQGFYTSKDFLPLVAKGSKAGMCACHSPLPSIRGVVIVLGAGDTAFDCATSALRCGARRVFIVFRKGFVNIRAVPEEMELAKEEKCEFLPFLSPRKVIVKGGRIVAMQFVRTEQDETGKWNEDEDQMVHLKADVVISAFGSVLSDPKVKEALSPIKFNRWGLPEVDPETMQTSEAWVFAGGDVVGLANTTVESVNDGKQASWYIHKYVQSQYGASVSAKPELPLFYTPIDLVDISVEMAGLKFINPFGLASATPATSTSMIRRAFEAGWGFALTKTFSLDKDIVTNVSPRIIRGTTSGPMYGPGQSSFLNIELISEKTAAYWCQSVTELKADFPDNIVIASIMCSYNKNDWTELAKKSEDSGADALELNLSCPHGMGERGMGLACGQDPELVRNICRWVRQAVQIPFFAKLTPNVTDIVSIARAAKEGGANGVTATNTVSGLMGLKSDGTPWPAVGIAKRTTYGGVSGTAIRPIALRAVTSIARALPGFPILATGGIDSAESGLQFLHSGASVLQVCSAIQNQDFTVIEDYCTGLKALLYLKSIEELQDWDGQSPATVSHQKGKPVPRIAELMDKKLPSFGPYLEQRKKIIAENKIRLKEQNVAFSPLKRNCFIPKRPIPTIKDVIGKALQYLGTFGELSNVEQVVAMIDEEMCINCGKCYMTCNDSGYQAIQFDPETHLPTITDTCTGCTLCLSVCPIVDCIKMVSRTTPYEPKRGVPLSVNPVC
As to the kind of experiment: 5-Vinyluracil, 5-iodouracil and gimeracil as stabilizer of 5-FU in spiked donor blood. The class given is biochemical. Conditions: 500 ng/mL 5-FU; 5-iodouracil 10/40 μg/mL, 5-vinyluracil 5/20 μg/mL, gimeracil 300/1,200 ng/mL; 45 minutes room temperature (FIG. 3). Here is the method: In the following illustrative examples, 5-FU was measured using an antibody-based agglutination assay on the Olympus AU680 Analyzer using an antibody disclosed in U.S. Pat. No. 7,205,116. Specifically, the concentration of 5-FU in a sample is determined based on the absorbance of a sample, which is determined by the amount of aggregation by the nanoparticles. The system requires two reagents, which when mixed in the absence of free 5-FU will form large aggregates of nanoparticles and scatter light to result in a higher absorption value. In the presence of free 5-FU, the agglutination reaction becomes somewhat inhibited and scattering of light is less, causing a lower absorption value. The instrument is calibrated twice monthly, and a curve is generated (Absorbance vs. 5-FU concentration). Absorbance values from individual samples are compared against this curve to determine concentration.
Generally in the agglutination assay, 95 μl of a buffer containing 5-FU-labeled amino-dextran is pipetted to a cuvette, followed by 7 μL of a filtered plasma sample. The sample and reagent are mixed and then incubated for about 3.5 minutes. 95 μl of 5-FU antibody-conjugated nanoparticles is pipetted into the cuvette and mixed. The complete reaction incubates for about 6.2 minutes. A series of 27 measurements at 600 nm are taken at regular intervals by the AU680 analyzer throughout this process, and 5-FU concentration is calculated using the measurements from two specific time points.
Three tubes of blood (spray-on K2EDTA tubes, 10 mL) was drawn from each of six donors, and blood tubes were gently inverted several times to mix anti-coagulant. Blood was pooled and kept separate by donor. An aliquot of each blood sample was transferred to a new conical tube, and a calculated volume of stock 5-FU (at 200 ng/μL) was spiked into each blood sample for a final concentration of 500 ng/mL 5-FU. Each blood sample was aliquotted to a set of four tubes (5 mL blood per tube). Each set of tubes was different, but included a combination of the conditions below: […]

This is an account of results in US8440442B2, “Method of assaying 5-FU” (Myriad Genetics, Inc, priority 2009, dated 2013).

As to `Oc1cc(O)c(Cl)cn1` [Gimeracil, 5-chloro-2,4-dihydroxypyridine], the “stabilizing 5-FU in blood samples” value was “effective”.
